From PMC12560751 (RSC Advances, 2025) come the findings set out here.

What is called inhibition is the drop in the measured response relative to a control, in per cent.

A value given as a limit tells only on which side of the number the result lay.

In data set [1] the target is T1, AChE (Homo sapiens, UniProt P22303). Put plainly: Anticholinesterase activity, modified colorimetric Ellman method. Type of data set: biochemical. Particulars: for inhibition at 100 µM / inhibition at 1000 µM: read-out: AChE % inhibition; for Selectivity and indexes: selective for AChE (over BChE). A general note: Ellman's reagent forms a yellow product with free thiols.
T1 sequence (P22303 32-614): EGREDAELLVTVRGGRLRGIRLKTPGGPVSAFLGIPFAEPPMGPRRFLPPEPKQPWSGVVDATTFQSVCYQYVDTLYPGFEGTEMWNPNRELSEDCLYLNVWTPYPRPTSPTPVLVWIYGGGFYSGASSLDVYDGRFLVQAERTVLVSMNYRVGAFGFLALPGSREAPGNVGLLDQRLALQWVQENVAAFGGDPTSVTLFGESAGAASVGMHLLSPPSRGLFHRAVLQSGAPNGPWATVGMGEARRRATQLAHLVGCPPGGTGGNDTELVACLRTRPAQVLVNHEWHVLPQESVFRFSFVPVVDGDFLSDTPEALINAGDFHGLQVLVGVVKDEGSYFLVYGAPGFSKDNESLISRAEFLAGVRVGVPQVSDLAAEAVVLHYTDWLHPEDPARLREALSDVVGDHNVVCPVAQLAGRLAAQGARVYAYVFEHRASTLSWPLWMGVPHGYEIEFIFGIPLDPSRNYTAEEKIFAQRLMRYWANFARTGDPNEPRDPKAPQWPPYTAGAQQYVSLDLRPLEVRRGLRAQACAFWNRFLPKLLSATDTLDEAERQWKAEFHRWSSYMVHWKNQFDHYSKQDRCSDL

The next data set deals with BChE (Homo sapiens, UniProt P06276). The data set is described as above. Type of data set: biochemical. To be noted: for inhibition at 100 µM / inhibition at 1000 µM: read-out: BChE % inhibition.
BChE, sequence (P06276 29-602, species assumed): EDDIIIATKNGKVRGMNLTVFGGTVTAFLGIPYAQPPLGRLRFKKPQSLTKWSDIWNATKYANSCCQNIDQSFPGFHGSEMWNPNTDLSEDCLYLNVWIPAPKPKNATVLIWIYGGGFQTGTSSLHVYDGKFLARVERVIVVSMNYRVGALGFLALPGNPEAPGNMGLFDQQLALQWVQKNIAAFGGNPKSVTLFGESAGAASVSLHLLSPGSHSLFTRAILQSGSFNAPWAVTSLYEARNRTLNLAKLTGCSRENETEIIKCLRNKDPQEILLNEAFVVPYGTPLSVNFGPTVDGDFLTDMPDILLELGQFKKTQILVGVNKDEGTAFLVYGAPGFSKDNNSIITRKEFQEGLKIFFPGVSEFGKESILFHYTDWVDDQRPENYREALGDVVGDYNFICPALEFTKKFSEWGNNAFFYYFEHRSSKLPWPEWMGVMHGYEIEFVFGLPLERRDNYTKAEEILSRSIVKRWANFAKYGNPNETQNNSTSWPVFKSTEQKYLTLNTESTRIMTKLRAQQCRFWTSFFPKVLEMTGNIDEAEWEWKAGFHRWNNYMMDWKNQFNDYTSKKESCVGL
The target in another data set is T2, hMAO A (Homo sapiens, UniProt P21397).
T2 sequence (P21397 1-527): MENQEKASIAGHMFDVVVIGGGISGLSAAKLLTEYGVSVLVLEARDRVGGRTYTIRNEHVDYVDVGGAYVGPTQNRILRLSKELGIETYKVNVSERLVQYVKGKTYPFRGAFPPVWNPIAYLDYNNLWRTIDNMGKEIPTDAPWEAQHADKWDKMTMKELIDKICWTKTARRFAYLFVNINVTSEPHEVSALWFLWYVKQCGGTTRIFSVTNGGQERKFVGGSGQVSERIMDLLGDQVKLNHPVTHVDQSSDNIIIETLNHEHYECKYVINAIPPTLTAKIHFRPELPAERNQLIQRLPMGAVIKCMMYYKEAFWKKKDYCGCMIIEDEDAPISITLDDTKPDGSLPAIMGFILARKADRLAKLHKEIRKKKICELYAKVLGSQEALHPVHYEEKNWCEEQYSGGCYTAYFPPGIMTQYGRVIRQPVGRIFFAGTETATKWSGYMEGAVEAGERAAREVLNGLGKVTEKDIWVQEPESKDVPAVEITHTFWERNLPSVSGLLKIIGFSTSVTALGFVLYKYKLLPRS
Put plainly: MAO A inhibition, fluorometric method. Type of data set: biochemical. Particulars: for inhibition at 100 µM / inhibition at 1000 µM: read-out: MAO A % inhibition.

A further data set has as its target T3, recombinant hMAO B (Homo sapiens, UniProt P27338).
T3 sequence (P27338 1-520): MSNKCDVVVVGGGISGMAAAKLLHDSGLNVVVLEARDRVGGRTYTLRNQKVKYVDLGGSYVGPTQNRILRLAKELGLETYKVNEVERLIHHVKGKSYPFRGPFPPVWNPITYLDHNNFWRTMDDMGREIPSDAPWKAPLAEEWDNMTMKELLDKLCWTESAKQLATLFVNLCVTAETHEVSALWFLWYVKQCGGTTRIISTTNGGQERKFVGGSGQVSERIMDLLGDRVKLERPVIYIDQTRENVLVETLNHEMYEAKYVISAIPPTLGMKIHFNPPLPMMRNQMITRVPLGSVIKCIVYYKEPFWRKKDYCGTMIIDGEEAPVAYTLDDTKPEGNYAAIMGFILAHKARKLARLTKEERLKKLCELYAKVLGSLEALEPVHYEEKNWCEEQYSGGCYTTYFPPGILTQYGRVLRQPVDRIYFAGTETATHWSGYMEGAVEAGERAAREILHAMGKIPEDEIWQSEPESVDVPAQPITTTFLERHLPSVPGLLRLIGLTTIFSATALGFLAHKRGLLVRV
Put plainly: MAO B inhibition, fluorometric method. Type of data set: biochemical. To be noted: for inhibition at 100 µM / inhibition at 1000 µM: read-out: MAO B % inhibition.

Data set [2] concerns the target T1, AChE. Put plainly: Kinetic studies of AChE enzyme inhibition. Type of data set: biochemical. Particulars: Lineweaver-Burk plot.
The test system of another data set is NIH/3T3 cell lines. Put plainly: Cytotoxicity, 24-hour MTT assay. Type of data set: cell-based. To be noted: for IC50: Mus musculus, NIH3T3, 24 h, read-out: IC50 against NIH/3T3. (In general: Tetrazolium assays rely on reduction of a dye to a coloured formazan, in cell work by metabolically active cells.)

In the case of `COc1ccc(C(=O)C=Cc2ccc(NC(=O)CN3CCN(C(C)=O)CC3)cc2)cc1OC` [Compound 4g, 2-(4-Acetylpiperazin-1-yl)-N-(4-(3-(3,4-dimethoxyphenyl)-3-oxoprop-1-en-1-yl)phenyl)acetamide], the IC50 is 0.027 ± 0.001 µM at AChE [1]; more than 1000 µM at BChE; more than 100 µM at hMAO A; 0.114 ± 0.003 µM at recombinant hMAO B (MAO B IC50, tables); less than 1 µM at recombinant hMAO B (MAO B IC50, text); 32.2 µM in the data set with NIH/3T3 cell lines. Moreover, the inhibition at 100 µM at AChE [1] came to 96.4 ± 2.5%; at BChE it was 29.9 ± 0.92%; at hMAO A, 39.4 ± 1.11%; on recombinant hMAO B, 89.2 ± 2.17%. Moreover, the inhibition at 1000 µM on AChE [1] turned out to be 98 ± 2.56%; at BChE, 36.4 ± 0.954%; on hMAO A, 69 ± 2.52%; on recombinant hMAO B it was 92.3 ± 2.16%. Besides, the Selectivity and indexes entry on AChE [1] is given as “AChE/>1000”. In addition, the type of inhibition result on AChE [2] was “reversible and mixed-type inhibitor”. Moreover, in the data set with NIH/3T3 cell lines (NIH/3T3, MTT), the “cytotoxicity (in words)” value was “not cytotoxic”.
For the molecule `COc1cccc2c1C(=O)c1c(O)c3c(c(O)c1C2=O)C[C@@](O)(C(=O)CO)C[C@@H]3O[C@H]1C[C@H](N)[C@H](O)[C@H](C)O1` [Doxorubicin, reference compound], the IC50 with NIH/3T3 cell lines was more than 1000 µM.
`C#CCN1CCN(CC(=O)Nc2ccc(C=CC(=O)c3ccc(OC)c(OC)c3)cc2)CC1` [Compound 4e, N-(4-(3-(3,4-Dimethoxyphenyl)-3-oxoprop-1-en-1-yl)phenyl)-2-(4-(prop-2-yn-1-yl)piperazin-1-yl)acetamide]: the IC50 against AChE [1] is more than 100 µM; against BChE, more than 1000 µM; against hMAO A, more than 100 µM; at recombinant hMAO B (MAO B IC50, tables) it was more than 100 µM. Moreover, the inhibition at 100 µM on AChE [1] is 39.4 ± 1.32%; on BChE, 21.9 ± 0.835%; on hMAO A, 44.2 ± 1.87%; on recombinant hMAO B it was 39.3 ± 1.48%. For the same molecule, the inhibition at 1000 µM was 67.2 ± 2.11% at AChE [1], 38 ± 0.964% at BChE, 61.4 ± 1.95% on hMAO A and 78.2 ± 2.48% on recombinant hMAO B.
As to `CCN1CCN(CC(=O)Nc2ccc(C=CC(=O)c3ccc(OC)c(OC)c3)cc2)CC1` [Compound 4b, N-(4-(3-(3,4-Dimethoxyphenyl)-3-oxoprop-1-en-1-yl)phenyl)-2-(4-ethylpiperazin-1-yl)acetamide], the IC50 against AChE [1] is 0.093 ± 0.003 µM; against BChE it was more than 1000 µM; on hMAO A, more than 100 µM; on recombinant hMAO B (MAO B IC50, tables) it was more than 100 µM. The inhibition at 100 µM on AChE [1] amounted to 88.7 ± 2.23%; at BChE, 27 ± 0.877%; on hMAO A it was 31.2 ± 1.24%; on recombinant hMAO B it was 40.1 ± 1.97%. Moreover, the inhibition at 1000 µM at AChE [1] was determined as 92.6 ± 2.45%; at BChE it was 31.1 ± 1.03%; on hMAO A it was 53.1 ± 2.17%; on recombinant hMAO B it was 60.4 ± 2.27%. For the same molecule, the Selectivity and indexes result at AChE [1] was “AChE/>1000”.
As to `COc1ccc(C(=O)C=Cc2ccc(NC(=O)CN3CCN(S(C)(=O)=O)CC3)cc2)cc1OC` [Compound 4m, N-(4-(3-(3,4-Dimethoxyphenyl)-3-oxoprop-1-en-1-yl)phenyl)-2-(4-(methylsulfonyl)piperazin-1-yl)acetamide], the IC50 at AChE [1] is 0.158 ± 0.006 µM; at BChE it was more than 1000 µM; on hMAO A, more than 1000 µM; at recombinant hMAO B (MAO B IC50, tables), more than 100 µM. In addition, the inhibition at 100 µM on AChE [1] is 87.6 ± 1.72%; at BChE, 33.3 ± 1.22%; on hMAO A, 33.6 ± 1.32%; on recombinant hMAO B, 29 ± 0.826%. Further, the inhibition at 1000 µM on AChE [1] was 89.4 ± 2.59%; at BChE, 37.3 ± 0.961%; on hMAO A it was 39.4 ± 1.37%; at recombinant hMAO B, 58 ± 1.63%. Besides, the Selectivity and indexes entry at AChE [1] is “AChE/>1000”; at recombinant hMAO B (selective for MAO-B (over MAO A)), “MAO-B/>10”.
